Tests used:
EBC-1 = test: cells; set-up: MTT antiproliferative assay, absorbance at 570 nm, monolayer cancer cells; details: Homo sapiens, 72 h, MTT, read-out: IC50 (µM) / Mean ± SEM / EBC-1
Excerpt: (§1) MTT (3-(4,5-dimethylthiazol-2-yl)-2,5-diphenyltetrazolium bromide) assay was applied to evaluate the antiproliferative effects of synthetic compounds against cancer and normal cell lines as previously described ([Damghani et al., 2021]). The MTT assay is based on the reduction function of NAD(P)H-dependent cellular oxidoreductase enzymes on yellow tetrazolium dye MTT to its insoluble formazan, which has a purple color and reflects the number of viable cells. Cancer and non-cancer cells were seeded in 96-well flat bottom plates at different densities of 1.5 × 10^4 (HT-29), 3 × 10^4 (A549 and U-87MG), 4 × 10^4 (EBC-1). Synthetic compounds were first dissolved in DMSO and then diluted in growth medium. After 24 h the attached cells were exposed to 100 µL of 3-4 different concentrations of synthesized derivatives in triplicate manner and incubated for an additional 72 h at 37°C. In addition, 3–4 different concentrations of reference compounds were added to wells. To perform the MTT assay the media was discarded from each well and MTT solution in phosphate-buffered saline at a concentration of 0.5 mg/ml was added to all wells. Then, plates were incubated at 37°C for 4 h to allow formation of formazan crystals. Afterwards, crystals were dissolved in 200 μL DMSO, shake on an orbital shaker for 30 min and absorbance was measured at a wavelength of 570 nm with background correction at 650 nm using a Bio-Tek microplate reader (Model Synergy HTX). Finally, IC50 values for each compound was calculated with CurveExpert software version 1.4 for windows. Each experiment was repeated 3–5 times. EBC-1 (human lung adenocarcinoma cells) were obtained from Japanese Collection of Research Bio Resources Cell Bank (JCRB). A549 (human lung adenocarcinoma cells), HT-29 (Human colorectal adenocarcinoma cells) and U-87MG (human primary glioblastoma cells) were obtained from Iranian Biological Resource Centre, Tehran, Iran. EBC-1 cells were cultured in RPMI 1640 medium containing 10% heat-inactivated fetal bovine serum (FBS) and 1% penicillin/streptomycin. A549, HT-29 and U-87MG cells were grown in DMEM low glucose, containing 10% heat-inactivated FBS and 1% penicillin/streptomycin. All cells were grown in monolayer culture at 37°C in a humidified incubator with 5% CO2. We employed the MTT assay in order to investigate the antiproliferative effects of the synthetic compounds against four different cancer cell lines, including lung cancer cell lines EBC-1 (with MET amplification) and A549, the human colorectal cancer cells HT-29, as well as the human glioblastoma cell line U-87MG.

A549 = test: cells; set-up: MTT antiproliferative assay, absorbance at 570 nm, monolayer cancer cells; details: Homo sapiens, 72 h, MTT, read-out: IC50 (µM) / Mean ± SEM / A549
Excerpt: as §1

U-87MG = test: cells; set-up: MTT antiproliferative assay, absorbance at 570 nm, monolayer cancer cells; details: Homo sapiens, 72 h, MTT, read-out: IC50 (µM) / Mean ± SEM / U-87MG
Excerpt: as §1

HT-29 = test: cells; set-up: MTT antiproliferative assay, absorbance at 570 nm, monolayer cancer cells; details: Homo sapiens, 72 h, MTT, read-out: IC50 (µM) / Mean ± SEM / HT29
Excerpt: as §1

MET kinase = MET kinase (Homo sapiens, UniProt P08581); test: HTRF kinase assay; confirmed by radiometric assay; type: biochemical
FLT4 (VEGFR3) = FLT4 (VEGFR3) (Homo sapiens, UniProt P35916); test: radiometric kinase assay (Eurofins), concentration-effect curve; type: biochemical
ALK = ALK (Homo sapiens, UniProt Q9UM73); test: radiometric kinase panel, % inhibition at […]; type: biochemical
AXL = AXL (Homo sapiens, UniProt P30530); test: radiometric kinase panel, % inhibition at […]; type: biochemical
FGFR1 = FGFR1 (Homo sapiens, UniProt P11362); test: radiometric kinase panel, % inhibition at […]; type: biochemical
FLT1 (VEGFR1) = FLT1 (VEGFR1) (Homo sapiens, UniProt P17948); test: radiometric kinase panel, % inhibition at […]; type: biochemical
13) MET(h) = 13) MET(h) (Homo sapiens, UniProt P08581); test: biochemical; set-up: Radiometric kinase activity assay, percent inhibition, Eurofins Cerep
Experimental: (§2) Kinase inhibition profile was examined by Kinase Radiometric Assays for 18 different oncogenic kinases (Eurofins Cerep, Celle l'Evescault, France). In order to investigate the activity of compound CM9, as the most promising agent in this series, against other oncogenic kinases, we further assessed this derivative against a panel of 18 other protein kinases using a radiometric assay at the concentrations of 10 and/or 25 μM (Table 4).

7) FLT1 (VEGFR1) (h) = 7) FLT1 (VEGFR1) (h) (Homo sapiens, UniProt P17948); test: biochemical; set-up: Radiometric kinase activity assay, percent inhibition, Eurofins Cerep; details: read-out: Kinase inhibition (%) ^a / 10 µM
Experimental: as §2

9) FLT4 (VEGFR3) = 9) FLT4 (VEGFR3) (Homo sapiens, UniProt P35916); test: biochemical; set-up: Radiometric kinase activity assay, percent inhibition, Eurofins Cerep; details: read-out: Kinase inhibition (%) ^a / 10 µM
Experimental: as §2

6) FGFR1(h) = 6) FGFR1(h) (Homo sapiens, UniProt P11362); test: biochemical; set-up: Radiometric kinase activity assay, percent inhibition, Eurofins Cerep; details: read-out: Kinase inhibition (%) ^a / 10 µM
Experimental: as §2

MAPK1(m) (ERK2) = MAPK1(m) (ERK2) (Mus musculus, UniProt P63085); test: biochemical; set-up: Radiometric kinase activity assay, percent inhibition, Eurofins Cerep; details: read-out: Kinase inhibition (%) ^a / 10 µM / −4
Experimental: as §2

19) NTRK1 (TRKA) (h) = 19) NTRK1 (TRKA) (h) (Homo sapiens, UniProt P04629); test: biochemical; set-up: Radiometric kinase activity assay, percent inhibition, Eurofins Cerep; details: read-out: Kinase inhibition (%) ^a / 10 µM / −4
Experimental: as §2

1) ABL1(h) = 1) ABL1(h) (Homo sapiens, UniProt P00519); test: biochemical; set-up: Radiometric kinase activity assay, percent inhibition, Eurofins Cerep; details: read-out: Kinase inhibition (%) ^a / 10 µM
Experimental: as §2

8) FLT3 (h) = 8) FLT3 (h) (Homo sapiens, UniProt P36888); test: biochemical; set-up: Radiometric kinase activity assay, percent inhibition, Eurofins Cerep
Experimental: as §2

11) MAPK3 (ERK1) (h) = 11) MAPK3 (ERK1) (h) (Homo sapiens, UniProt P27361); test: biochemical; set-up: Radiometric kinase activity assay, percent inhibition, Eurofins Cerep; details: read-out: Kinase inhibition (%) ^a / 10 µM
Experimental: as §2

3) AXL(h) = 3) AXL(h) (Homo sapiens, UniProt P30530); test: biochemical; set-up: Radiometric kinase activity assay, percent inhibition, Eurofins Cerep; details: read-out: Kinase inhibition (%) ^a / 10 µM
Experimental: as §2

2) ALK(h) = 2) ALK(h) (Homo sapiens, UniProt Q9UM73); test: biochemical; set-up: Radiometric kinase activity assay, percent inhibition, Eurofins Cerep; details: read-out: Kinase inhibition (%) ^a / 10 µM
Experimental: as §2

15) PDGFRB (PDGFRβ) (h) = 15) PDGFRB (PDGFRβ) (h) (Homo sapiens, UniProt P09619); test: biochemical; set-up: Radiometric kinase activity assay, percent inhibition, Eurofins Cerep
Experimental: as §2

4) KIT (c-Kit) (h) = 4) KIT (c-Kit) (h) (Homo sapiens, UniProt P10721); test: biochemical; set-up: Radiometric kinase activity assay, percent inhibition, Eurofins Cerep; details: read-out: Kinase inhibition (%) ^a / 10 µM
Experimental: as §2

14) PDGFRA (PDGFRα) (h) = 14) PDGFRA (PDGFRα) (h) (Homo sapiens, UniProt P16234); test: biochemical; set-up: Radiometric kinase activity assay, percent inhibition, Eurofins Cerep; details: read-out: Kinase inhibition (%) ^a / 10 µM / −4
Experimental: as §2

17) MST1R (RON) (h) = 17) MST1R (RON) (h) (Homo sapiens, UniProt Q04912); test: biochemical; set-up: Radiometric kinase activity assay, percent inhibition, Eurofins Cerep; details: read-out: Kinase inhibition (%) ^a / 10 µM / −4
Experimental: as §2

10) KDR (VEGFR2) (h) = 10) KDR (VEGFR2) (h) (Homo sapiens, UniProt P35968); test: biochemical; set-up: Radiometric kinase activity assay, percent inhibition, Eurofins Cerep; details: read-out: Kinase inhibition (%) ^a / 10 µM
Experimental: as §2

18) ROS1 = 18) ROS1 (Homo sapiens, UniProt P08922); test: biochemical; set-up: Radiometric kinase activity assay, percent inhibition, Eurofins Cerep; details: read-out: Kinase inhibition (%) ^a / 10 µM / −4
Experimental: as §2

5) EGFR(h) = 5) EGFR(h) (Homo sapiens, UniProt P00533); test: biochemical; set-up: Radiometric kinase activity assay, percent inhibition, Eurofins Cerep; details: read-out: Kinase inhibition (%) ^a / 10 µM
Experimental: as §2

16) RET(h) = 16) RET(h) (Homo sapiens, UniProt P07949); test: biochemical; set-up: Radiometric kinase activity assay, percent inhibition, Eurofins Cerep; details: read-out: Kinase inhibition (%) ^a / 10 µM / −4
Experimental: as §2

[1] = read-out: Kinase inhibition (%) ^a / 10 µM / −4
[2] = read-out: Kinase inhibition (%) ^a / 25 µM

Chain of 8) FLT3 (h) (P36888 whole entry): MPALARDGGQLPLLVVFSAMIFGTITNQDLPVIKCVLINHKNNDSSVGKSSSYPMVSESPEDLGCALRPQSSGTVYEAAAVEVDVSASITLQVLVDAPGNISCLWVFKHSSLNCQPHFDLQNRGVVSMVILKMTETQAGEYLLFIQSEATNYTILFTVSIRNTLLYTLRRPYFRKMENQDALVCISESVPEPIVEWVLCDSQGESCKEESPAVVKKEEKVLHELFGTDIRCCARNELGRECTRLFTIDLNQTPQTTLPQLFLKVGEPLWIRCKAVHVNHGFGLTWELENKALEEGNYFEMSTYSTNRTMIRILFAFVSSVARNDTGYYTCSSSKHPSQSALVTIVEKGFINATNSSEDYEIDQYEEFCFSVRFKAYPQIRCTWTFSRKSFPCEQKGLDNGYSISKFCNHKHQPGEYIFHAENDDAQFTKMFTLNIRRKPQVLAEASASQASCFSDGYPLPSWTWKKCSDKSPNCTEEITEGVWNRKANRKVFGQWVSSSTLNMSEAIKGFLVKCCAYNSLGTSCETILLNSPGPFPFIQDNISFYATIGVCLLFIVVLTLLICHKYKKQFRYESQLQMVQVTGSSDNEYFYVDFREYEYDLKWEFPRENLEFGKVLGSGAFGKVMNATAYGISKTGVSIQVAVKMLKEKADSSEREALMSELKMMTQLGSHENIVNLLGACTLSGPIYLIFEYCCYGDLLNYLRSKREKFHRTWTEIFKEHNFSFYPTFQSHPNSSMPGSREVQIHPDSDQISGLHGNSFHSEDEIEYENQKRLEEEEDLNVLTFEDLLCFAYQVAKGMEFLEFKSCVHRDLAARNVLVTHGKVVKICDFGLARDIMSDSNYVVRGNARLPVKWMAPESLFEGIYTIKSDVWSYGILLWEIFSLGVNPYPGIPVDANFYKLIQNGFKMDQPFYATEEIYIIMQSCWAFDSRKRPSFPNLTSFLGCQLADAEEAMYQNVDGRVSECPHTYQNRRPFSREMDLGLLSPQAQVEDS
Chain of 15) PDGFRB (PDGFRβ) (h) (P09619 whole entry): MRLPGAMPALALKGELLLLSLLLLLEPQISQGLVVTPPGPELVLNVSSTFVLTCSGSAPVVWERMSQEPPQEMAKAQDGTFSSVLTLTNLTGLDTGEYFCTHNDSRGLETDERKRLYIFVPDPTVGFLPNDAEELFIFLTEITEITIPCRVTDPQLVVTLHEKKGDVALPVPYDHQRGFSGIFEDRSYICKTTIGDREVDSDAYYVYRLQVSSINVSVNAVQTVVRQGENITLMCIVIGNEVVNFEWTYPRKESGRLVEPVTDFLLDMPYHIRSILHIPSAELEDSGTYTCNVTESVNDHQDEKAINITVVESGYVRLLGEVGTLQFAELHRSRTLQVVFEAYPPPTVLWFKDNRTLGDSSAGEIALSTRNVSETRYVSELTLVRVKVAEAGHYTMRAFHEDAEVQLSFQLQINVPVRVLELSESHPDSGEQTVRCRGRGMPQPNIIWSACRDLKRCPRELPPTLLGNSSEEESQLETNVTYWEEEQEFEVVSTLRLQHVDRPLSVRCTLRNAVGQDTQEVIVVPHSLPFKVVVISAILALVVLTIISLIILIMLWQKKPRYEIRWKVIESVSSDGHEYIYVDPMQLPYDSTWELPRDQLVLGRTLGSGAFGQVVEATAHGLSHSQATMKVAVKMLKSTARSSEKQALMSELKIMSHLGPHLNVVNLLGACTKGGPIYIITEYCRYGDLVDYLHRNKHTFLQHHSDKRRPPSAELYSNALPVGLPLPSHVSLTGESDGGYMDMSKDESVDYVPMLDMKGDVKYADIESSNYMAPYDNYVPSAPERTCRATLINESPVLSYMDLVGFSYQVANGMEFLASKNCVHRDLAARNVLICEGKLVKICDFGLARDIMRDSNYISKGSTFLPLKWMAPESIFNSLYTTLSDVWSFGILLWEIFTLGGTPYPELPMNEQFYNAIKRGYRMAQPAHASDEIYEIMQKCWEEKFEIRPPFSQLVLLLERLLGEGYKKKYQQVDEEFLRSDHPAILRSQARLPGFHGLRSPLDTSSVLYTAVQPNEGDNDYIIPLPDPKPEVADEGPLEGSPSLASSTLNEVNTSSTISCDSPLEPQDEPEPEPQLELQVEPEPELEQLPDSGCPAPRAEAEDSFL
Chain of 13) MET(h) (P08581 whole entry): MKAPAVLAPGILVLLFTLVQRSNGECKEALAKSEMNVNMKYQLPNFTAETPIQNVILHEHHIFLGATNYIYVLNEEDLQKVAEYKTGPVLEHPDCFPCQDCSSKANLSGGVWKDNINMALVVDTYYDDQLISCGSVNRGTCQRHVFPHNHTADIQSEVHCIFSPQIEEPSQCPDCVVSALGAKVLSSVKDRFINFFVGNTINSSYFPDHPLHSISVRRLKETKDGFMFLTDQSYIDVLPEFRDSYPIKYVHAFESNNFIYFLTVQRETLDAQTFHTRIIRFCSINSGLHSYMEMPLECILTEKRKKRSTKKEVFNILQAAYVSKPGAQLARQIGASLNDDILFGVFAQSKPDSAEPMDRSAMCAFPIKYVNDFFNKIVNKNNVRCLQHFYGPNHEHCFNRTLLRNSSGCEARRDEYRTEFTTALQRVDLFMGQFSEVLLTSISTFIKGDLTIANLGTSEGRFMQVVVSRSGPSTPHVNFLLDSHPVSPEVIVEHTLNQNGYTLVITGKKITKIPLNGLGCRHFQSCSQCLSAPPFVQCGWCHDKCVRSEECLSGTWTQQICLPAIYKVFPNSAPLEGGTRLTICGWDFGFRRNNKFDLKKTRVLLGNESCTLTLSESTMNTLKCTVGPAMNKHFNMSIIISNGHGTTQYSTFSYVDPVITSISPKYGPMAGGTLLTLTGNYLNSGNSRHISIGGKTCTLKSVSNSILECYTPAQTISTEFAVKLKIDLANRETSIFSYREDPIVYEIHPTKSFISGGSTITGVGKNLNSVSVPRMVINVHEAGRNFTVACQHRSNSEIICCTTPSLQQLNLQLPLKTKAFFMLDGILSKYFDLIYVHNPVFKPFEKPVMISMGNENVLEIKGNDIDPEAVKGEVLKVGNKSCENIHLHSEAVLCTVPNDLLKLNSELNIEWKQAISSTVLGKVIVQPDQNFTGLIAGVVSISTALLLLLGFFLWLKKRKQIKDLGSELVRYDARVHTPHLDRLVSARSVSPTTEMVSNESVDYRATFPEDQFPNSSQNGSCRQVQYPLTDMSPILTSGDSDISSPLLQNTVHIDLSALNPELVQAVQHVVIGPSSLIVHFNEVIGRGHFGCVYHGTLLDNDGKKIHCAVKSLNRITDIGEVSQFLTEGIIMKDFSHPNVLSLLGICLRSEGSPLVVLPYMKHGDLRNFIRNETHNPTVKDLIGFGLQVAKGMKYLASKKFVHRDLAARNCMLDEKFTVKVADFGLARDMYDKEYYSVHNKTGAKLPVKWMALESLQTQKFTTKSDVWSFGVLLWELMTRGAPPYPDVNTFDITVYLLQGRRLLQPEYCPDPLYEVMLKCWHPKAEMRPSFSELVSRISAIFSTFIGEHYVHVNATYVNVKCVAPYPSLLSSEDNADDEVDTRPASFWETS
Chain of 6) FGFR1(h) (P11362 whole entry): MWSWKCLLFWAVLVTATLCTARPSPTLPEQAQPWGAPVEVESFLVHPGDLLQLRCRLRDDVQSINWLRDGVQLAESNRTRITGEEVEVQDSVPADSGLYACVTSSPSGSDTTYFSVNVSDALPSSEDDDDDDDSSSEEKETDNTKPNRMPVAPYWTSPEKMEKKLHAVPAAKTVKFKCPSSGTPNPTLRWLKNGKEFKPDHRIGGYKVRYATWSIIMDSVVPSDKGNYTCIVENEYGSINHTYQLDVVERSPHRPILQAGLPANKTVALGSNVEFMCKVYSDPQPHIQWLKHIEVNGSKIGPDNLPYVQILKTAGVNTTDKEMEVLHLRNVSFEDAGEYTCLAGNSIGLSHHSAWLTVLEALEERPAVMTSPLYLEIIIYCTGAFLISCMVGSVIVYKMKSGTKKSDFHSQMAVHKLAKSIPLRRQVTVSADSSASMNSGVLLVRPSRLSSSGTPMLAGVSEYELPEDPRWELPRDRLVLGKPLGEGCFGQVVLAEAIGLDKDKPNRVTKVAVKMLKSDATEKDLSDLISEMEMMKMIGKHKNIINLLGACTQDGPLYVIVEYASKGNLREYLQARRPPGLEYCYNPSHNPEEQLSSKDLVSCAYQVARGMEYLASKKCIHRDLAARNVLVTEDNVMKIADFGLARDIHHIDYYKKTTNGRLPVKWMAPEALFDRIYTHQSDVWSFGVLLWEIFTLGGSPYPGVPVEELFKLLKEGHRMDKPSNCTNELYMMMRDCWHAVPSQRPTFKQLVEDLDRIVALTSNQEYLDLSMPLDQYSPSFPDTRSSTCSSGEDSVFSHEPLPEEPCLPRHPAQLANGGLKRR
Chain of FGFR1 (P11362 22-822): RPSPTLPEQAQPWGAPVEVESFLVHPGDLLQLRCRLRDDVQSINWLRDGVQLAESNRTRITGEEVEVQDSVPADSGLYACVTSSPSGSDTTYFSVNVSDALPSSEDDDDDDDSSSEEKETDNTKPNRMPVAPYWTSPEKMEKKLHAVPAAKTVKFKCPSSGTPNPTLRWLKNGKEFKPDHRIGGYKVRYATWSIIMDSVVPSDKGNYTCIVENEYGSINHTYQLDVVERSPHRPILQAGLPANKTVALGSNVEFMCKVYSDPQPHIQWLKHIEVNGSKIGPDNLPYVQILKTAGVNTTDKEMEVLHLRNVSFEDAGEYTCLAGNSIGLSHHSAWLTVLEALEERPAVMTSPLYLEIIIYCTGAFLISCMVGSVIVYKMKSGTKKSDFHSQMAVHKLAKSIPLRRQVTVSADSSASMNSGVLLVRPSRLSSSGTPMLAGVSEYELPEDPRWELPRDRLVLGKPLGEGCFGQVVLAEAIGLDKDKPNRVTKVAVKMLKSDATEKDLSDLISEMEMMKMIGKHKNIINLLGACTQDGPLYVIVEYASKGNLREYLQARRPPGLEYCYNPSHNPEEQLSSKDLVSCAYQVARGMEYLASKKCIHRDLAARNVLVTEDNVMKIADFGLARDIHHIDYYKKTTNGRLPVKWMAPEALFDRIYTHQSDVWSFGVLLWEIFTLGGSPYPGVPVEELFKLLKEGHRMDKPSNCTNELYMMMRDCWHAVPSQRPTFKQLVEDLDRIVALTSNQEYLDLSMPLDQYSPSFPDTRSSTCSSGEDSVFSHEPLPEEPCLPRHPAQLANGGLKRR

Structure (SMILES): Cn1c(N/N=C/c2ccc(OCc3cn(Cc4ccc(Cl)cc4)nn3)cc2)nc2ccccc2c1=O [CM5]
- IC50 (EBC-1): > 100 µM
- IC50 (A549): > 100 µM
- IC50 (U-87MG): > 100 µM
- IC50 (HT-29): > 100 µM

Structure (SMILES): Cn1c(N/N=C/c2ccc(OCc3cn(Cc4ccc([N+](=O)[O-])cc4)nn3)cc2)nc2ccccc2c1=O [CM1]
- IC50 (EBC-1): > 100 µM
- IC50 (A549): > 100 µM
- IC50 (U-87MG): > 100 µM
- IC50 (HT-29): > 100 µM

Structure (SMILES): Cn1c(N/N=C/c2ccc(OCc3cn(Cc4ccc(Cl)c(Cl)c4)nn3)cc2)nc2ccccc2c1=O [CM8]
- IC50 (EBC-1): 22.4 ± 6 µM
- IC50 (A549): 34.5 ± 2.2 µM
- IC50 (U-87MG): 51.1 ± 7.6 µM
- IC50 (HT-29): 47.8 ± 6.7 µM

Structure (SMILES): Cn1c(N/N=C/c2ccc(OCc3cn(Cc4ccc(C(C)(C)C)cc4)nn3)cc2)nc2ccccc2c1=O [CM3]
- IC50 (EBC-1): > 100 µM
- IC50 (A549): > 100 µM
- IC50 (U-87MG): > 100 µM
- IC50 (HT-29): 56.4 ± 14.5 µM

Structure (SMILES): Cn1c(N/N=C/c2ccc(OCc3cn(Cc4ccc(Br)cc4)nn3)cc2)nc2ccccc2c1=O [CM9, (E)-2-(2-(4-((1-(4-bromobenzyl)-1H-1,2,3-triazol-4-yl)methoxy)benzylidene)hydrazinyl)-3-methylquinazolin-4(3H)-one]
- IC50 (MET kinase): 22.8 ± 3.9 µM
- IC50 (FLT4 (VEGFR3)): 5.01 µM
- inhibition at 25 µM (ALK): 51%
- inhibition at 25 µM (AXL): 65%
- inhibition at 25 µM (FGFR1): 66%
- inhibition at 25 µM (FLT1 (VEGFR1)): 82%
- IC50 (EBC-1): 8.6 ± 1.9 µM
- IC50 (A549): 64.9 ± 2.9 µM
- IC50 (U-87MG): 24.6 ± 2.6 µM
- IC50 (HT-29): 65.2 ± 15.4 µM
- inhibition at 10 µM (13) MET(h); [1]): 27%
- inhibition at 25 µM (13) MET(h); [2]): 58%
- inhibition at 10 µM (7) FLT1 (VEGFR1) (h)): 22%
- inhibition at 10 µM (9) FLT4 (VEGFR3)): 86%
- inhibition at 10 µM (6) FGFR1(h)): 39%
- inhibition at 10 µM (MAPK1(m) (ERK2)): 3%
- inhibition at 10 µM (19) NTRK1 (TRKA) (h)): 4%
- inhibition at 10 µM (1) ABL1(h)): 14%
- inhibition at 10 µM (8) FLT3 (h); read-out: Kinase inhibition (%) ^a / 10 µM): 24%
- inhibition at 25 µM (8) FLT3 (h); [2]): 47%
- inhibition at 10 µM (11) MAPK3 (ERK1) (h)): -4%
- inhibition at 10 µM (3) AXL(h)): 28%
- inhibition at 10 µM (2) ALK(h)): 25%
- inhibition at 10 µM (15) PDGFRB (PDGFRβ) (h); [1]): 23%
- inhibition at 25 µM (15) PDGFRB (PDGFRβ) (h); [2]): 10%
- inhibition at 10 µM (4) KIT (c-Kit) (h)): 0%
- inhibition at 10 µM (14) PDGFRA (PDGFRα) (h)): 5%
- inhibition at 10 µM (17) MST1R (RON) (h)): 5%
- inhibition at 10 µM (10) KDR (VEGFR2) (h)): 0%
- inhibition at 10 µM (18) ROS1): -25%
- inhibition at 10 µM (5) EGFR(h)): -2%
- inhibition at 10 µM (16) RET(h)): -12%

Structure (SMILES): Cc1ccc(Cn2cc(COc3ccc(/C=N/Nc4nc5ccccc5c(=O)n4C)cc3)nn2)cc1 [CM2]
- IC50 (EBC-1): > 100 µM
- IC50 (A549): > 100 µM
- IC50 (U-87MG): > 100 µM
- IC50 (HT-29): > 100 µM

Structure (SMILES): Cn1c(N/N=C/c2ccc(OCc3cn(Cc4ccccc4)nn3)cc2)nc2ccccc2c1=O [CM6]
- IC50 (EBC-1): 32.5 ± 6.8 µM
- IC50 (A549): > 100 µM
- IC50 (U-87MG): > 100 µM
- IC50 (HT-29): > 100 µM

Structure (SMILES): Cn1c(N/N=C/c2ccc(OCc3cn(Cc4ccc(F)cc4)nn3)cc2)nc2ccccc2c1=O [CM4]
- IC50 (EBC-1): 36.2 ± 10.8 µM
- IC50 (A549): > 100 µM
- IC50 (U-87MG): 67.1 ± 6.2 µM
- IC50 (HT-29): 27.8 ± 5.1 µM

Source: publication PMC9713320, “Study of the anticancer effect of new quinazolinone hydrazine derivatives as receptor tyrosine kinase inhibitors” (Frontiers in Chemistry, 2022)
